Assay results from patent US4794118A, “1,4-benzodioxane derivatives” (Eisai Co., Ltd., priority 1985, dated 1988).

Tests used:
[1] = system: arterial and venous systems; test: Effects on the arterial and venous systems in anesthetized open-chest dogs; format: in vivo, mongrel dogs; details: for Max. change in mean blood pressure at diastole, Aortic / Max. change in mean blood pressure at diastole, Pulmonary: anesthetized open-chest dogs
Description: Effects on the arterial and venous systems in anesthetized open-chest dogs
Mongrel dogs of either sex, weighing 12-16 kg were subjected to inhalation anesthesia with enflurane under artificial respiration. The dogs were subjected to thoracotomy through the fourth right intercostal wall and catheters were inserted into the thoracic aorta and right pulmonary artery. The aortic and pulmonary blood pressures were measured by means of cathether tip-type piezoelectric transducers.
Test compounds were cumulatively administered with intervals of 30 minutes either intravenously or intraduodenally through catheters placed in the left femoral vein and duodenum.

coronary blood flow = test: Effects on the coronary blood flow in anesthetized open-chest dogs; format: in vivo, mongrel dogs; details: for Max. increase in coronary blood flow: anesthetized open-chest dogs
Description: Effects on the coronary blood flow in anesthetized open-chest dogs
Mongrel dogs of either sex weighing 9-14 kg were subjected to inhalation anesthesia with enflurane under artificial respiration. […] Test compounds were administered cumulatively at intervals of 10 minutes through a catheter inserted into the left femoral vein.

Acute toxicity in mice = details: mouse, in vivo
Description: Acute toxicity in mice was investigated with respect to 8-hydroxy-2-nitratomethyl-7-nitro-1,4-benzodioxane. […] A similar experiment was also conducted with an intravenous administration of NG.

[2] = system: spontaneously hypertensive rats (SHR); test: Hypotensive effects in spontaneously hypertensive rats (SHR) under anesthesia; format: in vivo, rat (SHR); details: anesthetized SHR
Description: Hypotensive effects in spontaneously hypertensive rats (SHR) under anesthesia
Male SHR of 20 weeks of age or older were anesthetized with sodium pentobarbital (40 mg/kg, i.p.). The carotid artery and jugular vein were cannulated. Blood pressure was recorded from the carotid artery on a polygraph via a pressure transducer. Test compounds were dissolved in a solution containing 0.9% NaCl and 1% Tween 80 and administered either intravenously into the jugular vein or intraduodenally through a cannula inserted into the duodenum.
As a representative of this invention, compound A (8-hydroxy-2-nitrato-methyl-7-nitro-1,4-benzodioxane) was chosen.

[3] = intravenous administration, dogs
[4] = intravenous, dogs, vs nicorandil

SMILES	Max. change in mean blood pressure at diastole, Aortic ([1]; i.d, 30 μg/Kg) [mm/Hg]	Max. change in mean blood pressure at diastole, Pulmonary ([1]; i.d, 30 μg/Kg) [mm/Hg]	Max. change in mean blood pressure at diastole, Aortic ([1]; i.d, 100 μg/Kg) [mm/Hg]	Max. change in mean blood pressure at diastole, Pulmonary ([1]; i.d, 100 μg/Kg) [mm/Hg]	Max. change in mean blood pressure at diastole, Aortic ([1]; i.d, 300 μg/Kg) [mm/Hg]	Max. change in mean blood pressure at diastole, Pulmonary ([1]; i.d, 300 μg/Kg) [mm/Hg]	Max. change in mean blood pressure at diastole, Aortic ([1]; i.v, 3 μg/Kg) [mm/Hg]	Max. change in mean blood pressure at diastole, Pulmonary ([1]; i.v, 3 μg/Kg) [mm/Hg]	Max. change in mean blood pressure at diastole, Aortic ([1]; i.v, 10 μg/Kg) [mm/Hg]	Max. change in mean blood pressure at diastole, Pulmonary ([1]; i.v, 10 μg/Kg) [mm/Hg]	Max. change in mean blood pressure at diastole, Aortic ([1]; i.v, 30 μg/Kg) [mm/Hg]	Max. change in mean blood pressure at diastole, Pulmonary ([1]; i.v, 30 μg/Kg) [mm/Hg]	Max. increase in coronary blood flow (coronary blood flow; 3 μg/Kg, intravenous) [%]	Max. increase in coronary blood flow (coronary blood flow; 10 μg/Kg, intravenous) [%]	LD50 (Acute toxicity in mice; intravenous administration) [mg/kg]	further results
O=[N+]([O-])OCC(CO[N+](=O)[O-])O[N+](=O)[O-] [NG, nitroglycerin]	-1.7	-0.7	-3.3	-1	-10	-1.7	-21.7	-0.8	-33.3	-3.0	-40.0	-3.7	31.3	79.7	10 to 15	Max. increase in coronary blood flow (coronary blood flow; 30 μg/Kg, intravenous): 165.0%
O=C(NCCO[N+](=O)[O-])c1cccnc1 [Nicorandil, N-[2-(nitroxy)ethyl]-3-pyridinecarboxamide]											-10.3	-1				Max. change in mean blood pressure at diastole, Aortic ([1]; i.v, 100 μg/Kg): -18.6 mm/Hg; Max. change in mean blood pressure at diastole, Pulmonary ([1]; i.v, 100 μg/Kg): -1.5 mm/Hg; Max. change in mean blood pressure at diastole, Aortic ([1]; i.v, 300 μg/Kg): -50.9 mm/Hg; Max. change in mean blood pressure at diastole, Pulmonary ([1]; i.v, 300 μg/Kg): -2.1 mm/Hg
O=[N+]([O-])OCC1COc2ccc([N+](=O)[O-])c(O)c2O1 (stereo not drawn) [Compound A, 8-hydroxy-2-nitratomethyl-7-nitro-1,4-benzodioxane]	-2	-1.5	-15	-2.5	-22	-3.5	-39.2	-3.2	-44.2	-5.3			84.7	127.6	200 to 250	minimal effective dose ([2]; Rattus norvegicus, intravenous administration, read-out: dose as small as which caused a marked hypotension): 0.3 µg/kg; hypotension ([2]; intraduodenal administration): dose-dependent hypotension; hypotensive potency relative to ISDN ([2]; intraduodenal, vs ISDN): ~30 times; hypotensive potency relative to NG ([2]; intraduodenal, vs NG): ~10 times; hypotensive potency relative to nicorandil ([2]; intraduodenal, vs nicorandil): about 5 times; potency to cause 30% decrease in mean aortic pressure relative to ISDN ([2]; intravenous, vs ISDN): 250 times; potency to cause 30% decrease in mean aortic pressure relative to NG ([2]; intravenous, vs NG): 5 times; potency to cause 30% decrease in mean aortic pressure relative to nicorandil ([2]; intravenous, vs nicorandil): 300 times; Max. change in mean blood pressure at diastole, Aortic ([1]; i.v, 1 μg/Kg): -23 mm/Hg; Max. change in mean blood pressure at diastole, Pulmonary ([1]; i.v, 1 μg/Kg): -2.5 mm/Hg; reductions in aortic and pulmonary blood pressures ([1]; intraduodenal administration, dogs): dose-dependent reductions in aortic and pulmonary blood pressures; potency (reductions in aortic and pulmonary blood pressures) relative to NG ([1]; intraduodenal, dogs, vs NG): about 3 times; reduction of aortic and pulmonary blood pressure [1, 3]: reduced aortic and pulmonary blood pressure dose-dependently; vasodilating effect on the arterial system (reduction in aortic blood pressure) relative to nicorandil [1, 4]: about 3 times; vasodilating effect on the venous system (reduction in pulmonary blood pressure) relative to nicorandil [1, 4]: about 3 times; Max. increase in coronary blood flow (coronary blood flow; 1 μg/Kg, intravenous): 52.0%; dose range causing a marked and dose-dependent increase in coronary blood flow (coronary blood flow; [3]): 1 to 10 µg/kg; effect on the coronary flow, potency relative to NG (coronary blood flow; intravenous, dogs, vs NG): about 3 times; LD50 (Acute toxicity in mice; oral administration): 500 to 1000 mg/kg
